# Data: ChEMBL document CHEMBL4130389, “An integrative study to identify novel scaffolds for sphingosine kinase 1 inhibitors” (Eur J Med Chem, 2017)
# Molecular target: Sphingosine kinase 1 (Homo sapiens, UniProt Q9NYA1)
# Experiment: Inhibition of human N-terminal MGHHHHHHHHHHSSG-tagged SphK1 (2 to 384 residues) expressed in Escherichia coli Rosetta-2 by fluorescence assay
# Sequence of Sphingosine kinase 1 (Q9NYA1 whole entry, the tested form may be a part): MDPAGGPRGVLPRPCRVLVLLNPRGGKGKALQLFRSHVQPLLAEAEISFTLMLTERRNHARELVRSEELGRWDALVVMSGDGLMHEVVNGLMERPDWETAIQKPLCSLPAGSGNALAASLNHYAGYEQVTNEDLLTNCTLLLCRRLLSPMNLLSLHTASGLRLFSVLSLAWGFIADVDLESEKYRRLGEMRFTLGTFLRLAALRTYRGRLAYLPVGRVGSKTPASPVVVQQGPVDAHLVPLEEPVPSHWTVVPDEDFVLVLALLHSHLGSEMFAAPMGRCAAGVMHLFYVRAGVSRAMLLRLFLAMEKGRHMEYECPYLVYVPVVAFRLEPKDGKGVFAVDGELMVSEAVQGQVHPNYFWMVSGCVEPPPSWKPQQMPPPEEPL
row,IC50,Compound
1,55 µM,CCCCOC(=O)Nc1ccc(C(O)CN2CCN(c3ccncc3)CC2)cc1 (stereo not drawn)
2,60 µM,CCCCOC(=O)Nc1cccc(C(O)CN2CCN(c3ccncc3)CC2)c1 (stereo not drawn)
3,12 µM,CC1Cc2c(N/N=C/c3ccc(Cl)cc3)ncnc2N(C)c2ccccc21 (stereo not drawn)
